Test results as given in patent publication US9744164B2, “Neuroprotective polyphenol analogs” (Salk Institute for Biological Studies, priority 2011, dated 2017).

Tests used:
HT22 cells = assay: in vitro ischemia assay (HT22 cell IAA assay); assay type: cell-based, mouse; details: for increase in survival: 20 μM IAA, over the neuroprotective concentration range; for improvement of neuroprotective activity/potency over Fisetin: relative to Fisetin, in vitro ischemia
Protocol: For these studies, cultured HT22 mouse hippocampal cells were used as an in vitro stroke assay. HT22 cells were treated with iodoacetic acid (IAA), an irreversible inhibitor of glyceraldehyde 3-phosphate dehydrogenase (G3PDH) for 2 hr alone or in the presence of varying concentrations of Fisetin. G3PDH is an enzyme of the glycolysis pathway, which catalyzes the synthesis of 1,3-bisphosphoglycerate, a “high energy” intermediate used for the synthesis of ATP. Cell survival was measured using a standard colorimetric MTT (3-(4,5-dimethylthiazol-2-yl)-2,5-diphenyltetrazolium bromide) assay for cell survival MTT is a pale yellow substrate that is cleaved by living cells to yield a dark blue formazan product.
Cytotoxicity assay. Cell viability was determined by a modified version of 3-(4,5-dimethylthiazol-2-yl)-2,5-diphenyl tetrazolium bromide (MTT) assay based on the standard procedure (Maher, et al., Brain Research. (2007), supra). Cells were seeded onto 96-well microtiter plates at a density of 5×10^3 cells per well. For the in vitro ischemia assay, the next day, the medium was replaced with DMEM supplemented with 7.5% DFCS and the cells were treated with 20 μM iodoacetic acid (IAA) alone or in the presence of the different derivatives. After 2 hr the medium in each well was aspirated and replaced with fresh medium without IAA but containing the derivatives. 20 hr later, the medium in each well was aspirated and replaced with fresh medium containing 2.5 μg/ml MTT. After 4 hr of incubation at 37° C., the cells were solubilized with 100 μl of a solution containing 50% dimethylformamide and 20% SDS (pH 4.7). The absorbance at 570 nm was measured on the following day with a microplate reader (Molecular Devices). Results were confirmed by visual inspection of the wells. Controls included compound alone to test for toxicity and compound with no cells to test for interference with the assay chemistry.
For a primary screen, an in vitro ischemia model in combination with the HT22 nerve cell line (Maher, et al., Brain Research. (2007) 1173, 117-125) was chosen. […] To induce ischemia in the HT22 cells we used iodoacetic acid (IAA), a well-known, irreversible inhibitor of the glycolytic enzyme glyceraldehyde 3-phosphate dehydrogenase (G3PDH) (Winkler, et al., Exp. Eye Res. (2003) 76, 715-723). IAA has been used in a number of other studies to induce ischemia in nerve cells (Reshef, et al., Neurosci. Lett. (1997) 238, 37-40; Sperling, et al., Neursci. Lett. (2003) 351, 137-140; Rego, et al., Neurochem. Res. (1999) 24, 351-358; Sigalov, et al,. J. Mol. Neurosci. (2000) 15, 147-154; and Reiner, et al., Neurosci. Lett. (1990) 119, 175-178), including several recent screens for neuroprotective molecules (Biraboneye, et al., J. Med. Chem. (2009) 52 (14), 4358-4369; Biraboneye, et al., Chem. Med. Chem. (2010) 5 (1), 79-85). The changes following IAA treatment of neural cells are very similar to those seen in animal models of ischemic stroke (Lipton, et al., Physiol. Rev. (1999) 79, 1431-1568) and include alterations in membrane potential (Reiner, et al., Neurosci. Lett. (1990) 119, 175-178), breakdown of phospholipids (Taylor, et al., J. Pharmacol. Exp. Ther. (1996) 276, 1224-1231), loss of ATP (Winkler, et al., Exp. Eye Res. (2003) 76, 715-723; Sperling, et al., Neursci. Lett. (2003) 351, 137-140) and an increase in reactive oxygen species (ROS) (Taylor, et al., J. Pharmacol. Exp. Ther. (1996), supra; and Sperling, et al., Neursci. Lett. (2003) 351, 137-140).
The roles of the four different hydroxyl groups in the activity of Fisetin were studied. […] Cell viability was determined after 24 hr by the MTT assay. The ability to maintain GSH (GSH) was determined by treating HT22 cells with different doses of each derivative (1-10 μM) in the presence of 5 mM glutamate. After 24 hr cell extracts were prepared and analyzed for total GSH. Fisetin (10 μM) was used as a positive control. […]

Nrf2 = Nrf2 induction, SDS-PAGE and Western blotting of nuclear extracts; assay type: cell-based; details: cells treated 1, 2 and 4 hr at most protective concentration
Protocol: SDS-PAGE and immunoblotting. For immunoblotting of Nrf2, nuclear extracts were prepared as described (Schreiber, et al., Nucleic Acids Res. (1989) 17 (15), 6419) from untreated cells and cells treated with the Fisetin derivatives for 1, 2 and 4 hr. Fisetin was used as a positive control. […] Protein concentrations were determined using the BCA protein assay (Pierce). Equal amounts of protein were solubilized in 2.5× SDS-sample buffer, separated on 10% SDS-polyacrylamide gels and transferred to nitrocellulose. Equal loading and transfer of the samples was confirmed by staining the nitrocellulose with Ponceau-S. Transfers were blocked for 1 hr at room temperature with 5% nonfat milk in TBS/0.1% Tween 20 and then incubated overnight at 4° C. in the primary antibody diluted in 5% BSA in TBS/0.05% Tween 20. The primary antibodies used were: anti-Nrf2 (#SC13032; 1/1000) from Santa Cruz Biotechnology (Santa Cruz, Calif.) and anti-β-actin (#5125; 1/20,000) from Cell Signaling (Beverly, Mass.). The transfers were rinsed with TB S/0.05% Tween 20 and incubated for 1 hr at room temperature in horseradish peroxidase-goat anti-rabbit or goat anti-mouse (Biorad, Hercules, Calif.) diluted 1/5000 in 5% nonfat milk in TBS/0.1% Tween 20. The immunoblots were developed with the Super Signal reagent (Pierce, Rockford, Ill.).
The transcription factor Nrf2 plays a key role in regulating GSH metabolism in many different cell types (Lewerenz, et al., Antioxidant & Redox Signaling. (2011) 14, 1449-1465). We have shown that Fisetin can induce Nrf2 and this correlates with its ability to enhance GSH levels (Maher, P. et al., Genes. Nutr. (2009) Sep. 10). To determine if the derivatives which can maintain GSH levels do so by increasing Nrf2 we looked at Nrf2 levels in the nuclei of derivative-treated cells using Fisetin as a positive control (Table 4). […] This was particularly true for the derivatives based on the quinoline scaffold where none of them increased Nrf2 despite being very effective at maintaining GSH levels.
The ability of the derivatives that maintain GSH levels to induce the transcription factor Nrf2 was assayed by SDS-PAGE and Western blotting of nuclear extracts of untreated and derivative-treated cells. Fisetin treatment was used as a positive control.

SMILES | increase in survival (HT22 cells; HT22 cells) | Nrf2 (induction of transcription factor Nrf2) (Nrf2) | improvement of neuroprotective activity/potency over Fisetin (HT22 cells) | EC50 in vitro ischemia (HT22 cells; HT22 cells, 20 μM IAA 2 hr, viability by MTT after 24 hr, 'no' = no protection) | improvement of neuroprotective activity relative to CMS-007 (HT22 cells) [fold]
O=c1c(O)c(-c2ccc(O)c(O)c2)oc2cc(O)ccc12 [Fisetin, 3,7,3′,4′-tetrahydroxy flavone] | greater than 85% | Yes | – | – | –
O=c1cc(-c2ccccc2)oc2cc(O)c(O)c(O)c12 [Baicalein, 5,6,7-trihydroxyflavone] | greater than 80% | – | – | – | –
O=c1c(O)c(-c2ccc(N3CCCC3)c(O)c2)oc2c1ccc1ccccc12 [CMS-140, 3-hydroxy-2-(3-hydroxy-4-(pyrrolidin-1-yl)phenyl)-4H-benzo[h]chromen-4-one] | – | No | up to 600 fold | – | –
COc1cc(-c2ccc(O)c(O)c2)nc2ccccc12 [CMS-007, 4-methoxy-2-(3,4-dihydroxyphenyl)quinoline] | – | No | ~75 fold | – | –
COc1ccc(/C=C/C(=O)c2cc(C)c(C)cc2O)cc1OCc1ccccc1 [CMS-086, (E)-3-(3-(benzyloxy)-4-methoxyphenyl)-1-(2-hydroxy-4,5-dimethylphenyl)prop-2-en-1-one] | – | Yes | – | no | –
CC(C)Oc1cc(-c2ccc(O)c(O)c2)nc2ccccc12 [CMS-024, 4-isopropoxy-2-(3,4-dihydroxyphenyl)quinoline] | – | No | – | – | ~2
CCOc1cc(-c2ccc(O)c(O)c2)nc2ccccc12 [CMS-023, 4-ethoxy-2-(3,4-dihydroxyphenyl)quinoline] | – | No | ~140 fold | – | ~2
Oc1ccc(-c2cc(OC3CCCC3)c3ccccc3n2)cc1O [CMS-121, 4-cyclopentyloxy-2-(3,4-dihydroxyphenyl)quinoline] | – | No | > 400 fold | – | –
O=c1c(O)c(-c2ccc(O)c(O)c2)oc2ccccc12 [CMS-04P, reference compound] | – | Yes | ~6 fold | – | –
